Data reported in patent US4788214A, “3,4-dihydro-2H-1-benzopyran derivatives” (Hoffman-La Roche Inc., priority 1986, dated 1988).

Key:
[1] = test system: leukotriene D4 induced bronchoconstriction; experiment: Oral Testing of Leukotriene Antagonists, leukotriene D4 challenge; assay type: in vivo, guinea pig (Hartley strain); details: Cavia porcellus, 2 h, p.o., two hours prior to challenge
Experimental: (c) Oral Testing of Leukotriene Antagonists
Male guinea pigs (Hartley strain, Charles River) weighing 400 to 600 g were anesthetized with urethane (2 g/kg) intraperitoneally and a polyethylene cannula was inserted into the jugular vein for intravenous drug administration. Tracheal pressure (cm water) was recorded from a Statham pressure transducer. After surgical preparation of the animals, a period of time was allowed for spontaneous breathing to stabilize. […] Two minutes later, spontaneous breathing was arrested with succinylcholine chloride (1.2 mg/kg, i.v.) and the animals ventilated with a Harvard (Model #680) small animal respirator set at 40 breaths per minute and 4.0 cc stroke volume. The animals were challenged with a maximum constrictory dose of either leukotriene C4 or leukotriene D4 or leukotriene E4 (25 μg/kg, i.v.) at 5 minutes. Control vehicle or test drug (adjusted to an alkaline pH where necessary for drug solubilization) was administered (10 mg/kg, p.o.) two hours prior to challenge with leukotriene. In order to determine the ID50 for a test drug, the dose is varied from 10 mg/kg, p.o. to 100, 50, 30, 20, 5, 3 and 1 mg/kg, p.o.
In order to determine oral duration of action, the time between exposure to test drug and challenge with leukotriene is varied.

[2] = test system: SRS-A-induced constriction of the guinea pig ileum; experiment: Guinea Pig Ileum, In Vitro (SRS-A antagonism); assay type: cell-based; details: Cavia porcellus; SRS-A-induced constriction, 37° C., SRS-A at its EC50; read-out: In vitro Guinea Pig ileum IC50
Experimental: (a) Guinea Pig Ileum, In Vitro:
The guinea pig ileum bioassay system has been described by Orange Austen, Adv. Immunol. […] A 1.5 cm segment is removed from animals weighing 300-400 g and suspended in an organ bath containing 10 ml of Tyrodes solution with 10^-6 M atropine sulfate and 10^-6 M pyrilamine maleate. […] The SRS-A utilized in this screen is obtained by challenging chopped lung fragments from actively sensitized guinea pigs with egg albumin, in vitro. A dose-response curve to SRS-A challenge is established for the ileum. […] The drug concentration which inhibits, by 50%, the SRS-A-induced constriction of the guinea pig ileum is determined.

[3] = test system: leukotriene E4 bronchoconstriction; experiment: Guinea Pig Bronchoconstriction, In Vivo (Aerosol), leukotriene E4 challenge; design: species or system guinea pig (Hartley strain); details: five minute exposure, drug concentration of aerosol solution (w/v), leukotriene E4 i.v.
Experimental: (b) Guinea Pig Bronchoconstriction, In Vivo (Aerosol):
Male guinea pigs (Hartley strain) weighing 300 to 500 g are anesthetized with urethane (2 g/kg) intraperitoneally and a polyethylene cannula is inserted into the jugular vein for drug administration. Tracheal pressure is recorded from a cannula inserted in the trachea and connected to a Statham pressure transducer. After surgical preparation of the animals, a period of time is allowed for pulmonary functions to stabilize. The test compound is administered according to the following protocol. Propanolol (0.1 mg/kg) is administered intravenously while the animals breathed spontaneously. Five minutes thereater, the animals are exposed for a five minute period to a 1% (w/v) aerosol solution of test compound (adjusted to an alkaline pH where necessary for drug solubilization) or to distilled water of thhe appropriate pH (for control purposes). A Monaghan (Model 750) ultrasonic nebulizer is used to administer all test compounds by inhalation. The nebulizer ultrasonic frequency is adjusted to produce particles in the 1-8μ diameter range (average 3μ). Aqueous solutions are prepared freshly and introduced into the chamber of the nebulizer. The output of the nebulizer is made available to the animal by directing a bias flow of aerosol through a Y tube connected to the trachel cannula. At the end of the exposure period, the animals are paralyzed with succinylcholine (1.2 mg/kg, i.v.) and mechanically respirated (Harvard rodent respirator) at 40 breaths/minute and 2.5 cc tidal volume. Animals are then challenged with a maximum constrictory dose of leukotriene E4 delivered intravenously 30 seconds after administration of the succinylcholine.
The change (cm H2 O) between pre and peak ventilatory pressure readings averaged for three control animals and five drug treated animals. The percent inhibition is calculated from the following formula: [formula] When various drug concentrations are tested, the percent inhibition at each concentration is plotted as log concentration (abscissa) versus percent inhibition (ordinate) and the IC50 is determined from linear regression analysis.

Structure (SMILES) | inhibition at 10 mg/kg [1] | IC50 [2] | Guinea Pig Bronchoconstriction In vivo aerosol - IC50 [3]
CCCc1c(OCCCCCOc2cc3c(cc2C(C)=O)CCC(CCCCC(=O)O)O3)ccc(C(C)=O)c1O (racemic) [racemic-6-acetyl-7-[5-(4-acetyl-3-hydroxy-2-propylphenoxy)pentyloxy]-3,4-dihydro-2H-1-benzopyran-2-pentanoic acid] | 46 ± 14% | – | –
CCCc1c(OCCCOc2ccc3c(c2)OCC(C(=O)O)C3)ccc(C(C)=O)c1O (racemic) [racemic 7-[3-(4-acetyl-3-hydroxy-2-propylphenoxy)propoxy]-3,4-dihydro-2H-1-benzopyran-3-carboxylic acid] | – | 100 nM | > 1.0%
CCCc1c(OCCCOc2ccc3c(c2CCC)OC(C(=O)O)CC3)ccc(C(C)=O)c1O (racemic) [racemic-7-[3-(4-acetyl-3-hydroxy-2-propyl)phenoxy)propoxy]-3,4-dihydro-8-propyl-2H-1-benzopyran-2-carboxylic acid] | – | 100 nM | 0.20%
CCCc1c(OCCCOc2ccc3c(c2)OC(CC(=O)O)CC3)ccc(C(C)=O)c1O (racemic) [racemic-7-[3-(4-acetyl-3-hydroxy-2-propylphenoxy)propoxy]-3,4-dihydro-2H-1-benzopyran-2-acetic acid] | – | 100 nM | 0.67%
CCCc1c(OCCCOc2cc3c(cc2C(C)=O)OC(C)(C(=O)O)CC3)ccc(C(C)=O)c1O (racemic) [racemic-7-acetyl-6-[3-(4-acetyl-3-hydroxy-2-propylphenoxy)propoxy]-3,4-dihydro-2-methyl-2H-1-benzopyran-2-carboxylic acid] | – | 500 nM | 1.0%
CCCc1c(OCCCOc2ccc3c(c2C(C)=O)OC(C(=O)O)CC3)ccc(C(C)=O)c1O (racemic) [racemic-8-acetyl-7-[3-(4-acetyl-3-hydroxy-2-propylphenoxy)propoxy]-3,4-dihydro-2H-1-benzopyran-2-carboxylic acid] | – | 300 nM | 0.59%
CCCc1c(OCCCOc2c(C(C)=O)cc3c(c2CCC)OC(C)(CCC(=O)O)CC3)ccc(C(C)=O)c1O (racemic) [racemic-6-acetyl-7-[3-(4-acetyl-3-hydroxy-2-n-propylphenoxy)propoxy]-3,4-dihydro-2-methyl-8-n-propyl-2H-1-benzopyran-2-propanoic acid] | – | 80 nM | 0.12%
CCCc1c(OCCCCCCCOc2cc3c(cc2C(C)=O)CCC(C(=O)O)O3)ccc(C(C)=O)c1O (racemic) [racemic-6-acetyl-7-[7-(4-acetyl-3-hydroxy-2-propylphenoxy)heptyloxy]-3,4-dihydro-2H-1-benzopyran2-carboxylic acid] | – | 1000 nM | 1.0%
CCCc1c(OCCCOc2c(C)c(C)c3c(c2C)CCC(C(=O)O)O3)ccc(C(C)=O)c1O (racemic) [racemic-6-[3-(4-acetyl-3-hydroxy-2-propylphenoxy)propoxy]-3,4-dihydro-5,7,8-trimethyl-2H-1-benzopyran-2-carboxylic acid] | – | 100 nM | 1.0%
CCCc1c(OCCCOc2c(C)c(C)c3c(c2C)CCC(C)(C(=O)O)O3)ccc(C(C)=O)c1O (racemic) [racemic-6-[3-(4-acetyl-3-hydroxy-2-propylphenoxy)propoxy]-3,4-dihydro-2,5,7,8-tetramethyl-2H-1-benzopyran-2-carboxylic acid] | – | 100 nM | 1.0%
CCCc1c(OCCCOc2ccc3c(c2)CCC(C)(CCC(=O)O)O3)ccc(C(C)=O)c1O (racemic) [racemic-6-[3-(4-acetyl-3-hydroxy-2-propylphenoxy)propoxy]-3,4-dihydro-2-methyl-2H-1-benzopyran-2-propanoic acid] | – | 500 nM | > 1.0%
